According to patent US20190152993A1, “Reversibly Switchable Surfactants and Methods of Use” (WARNER BABCOCK INSTITUTE FOR GREEN CHEMISTRY, LLC, priority 2016, published 2019):
Marks after values point to notes of the source that are not given here.

Legend:
[1] = Separate experiment: solubility of palmitic acid in hexanes with switchable surfactant activation; format: physicochemical; conditions: 1 mg/mL surfactant
Description: The second vial was exposed to 365-nm ultraviolet light that activated the surfactant; the solution turned magenta due to the color of the merocyanine.

[2] = Lifetimes (half-life) of the activated merocyanine surfactants in solvents; format: physicochemical; conditions: error limits 10-20%
Description: Lifetimes of the activated zwitterionic merocyanine isomers of compounds 4a, 4b, 4c, and 4e in several solvents were determined.
The spiropyran compound 4 was added to a solvent in a 1-cm quartz cuvette and the cuvette was irradiated with ultraviolet light at 365 nm for ˜60 seconds. […] Absorption spectra were recorded from 450 to 650 nm every 5 seconds over a 350-second observation time. The concentrations of the merocyanine were adjusted so that the initial t=0 absorbance at the absorption maximum (λmax) was in the range of 1-1.4. All kinetics experiments were done in triplicate once an appropriate spiropyran/merocyanine surfactant concentration was determined. The absorbances at λmax were normalized to the highest value, and the three data sets averaged to give the normalized absorbances as a function of time. If the normalized absorbance had dropped to at least 0.5 during the 350-s monitoring time, the half-life was taken as the time at which the normalized absorbance had reached 0.5.

[3] = in acetone, after 365 nm irradiation
[4] = in cyclohexane, after 365 nm irradiation
[5] = in ethanol, longer than 350 s monitoring, by extrapolation of exponential fit
[6] = in ethyl acetate, after 365 nm irradiation
[7] = in methanol, longer than 350 s monitoring, by extrapolation of exponential fit
[8] = in octanol, longer than 350 s monitoring, by extrapolation of exponential fit
[9] = in toluene, after 365 nm irradiation

With CCCCCCCCCCCCCCCCCCN1c2ccccc2C(C)(C)C12C=Cc1cc([N+](=O)[O-])ccc1O2 (stereo not shown) [4e, 3′,3′-Dimethyl-6-nitro-1′-octadecylspiro[chromene-2,2′-indoline]] the “reversibility after UV-treated solution placed in the dark” value ([1]; 53 mg/mL palmitic acid) was “precipitate began to form”, the “palmitic acid dissolved with activated surfactant” value ([1]; 53 mg/mL palmitic acid charged, 365-nm ultraviolet light) was 53 mg/mL and the “dissolution of palmitic acid with ground-state surfactant” value ([1]; 53 mg/mL palmitic acid charged, kept in the dark) was “not fully dissolved”.
In the case of C[N+]1=C(/C=C/c2cc([N+](=O)[O-])ccc2[O-])C(C)(C)c2ccccc21 [5a], the “Merocyanine Half-life” value [2, 3] is reported as 103 s, the “Merocyanine Half-life” value [2, 4] is reported as 14 s and the “Merocyanine Half-life” value [2, 5] is reported as 1200 s. For the same molecule, the “Merocyanine Half-life” value [2, 6] was 19 s, the “Merocyanine Half-life” value [2, 7] was 4900 s and the “Merocyanine Half-life” value [2, 8] was 610 s. The “Merocyanine Half-life” value [2, 9] was 16 s.
With CCCC[N+]1=C(/C=C/c2cc([N+](=O)[O-])ccc2[O-])C(C)(C)c2ccccc21 [5b] the “Merocyanine Half-life” value [2, 3] was 130 s, the “Merocyanine Half-life” value [2, 4] was 44 s and the “Merocyanine Half-life” value [2, 5] was 1300 s. For the same molecule, the “Merocyanine Half-life” value [2, 6] was 23 s, the “Merocyanine Half-life” value [2, 7] was 23000 s and the “Merocyanine Half-life” value [2, 8] was 610 s. The “Merocyanine Half-life” value [2, 9] was 32 s.
In the case of CCCCCCCC[N+]1=C(/C=C/c2cc([N+](=O)[O-])ccc2[O-])C(C)(C)c2ccccc21 [5c], the “Merocyanine Half-life” value [2, 3] is reported as 153 s, the “Merocyanine Half-life” value [2, 4] is reported as 40 s and the “Merocyanine Half-life” value [2, 5] is reported as 1500 s. For the same molecule, the “Merocyanine Half-life” value [2, 6] was 20 s, the “Merocyanine Half-life” value [2, 7] was >10^4‡ seconds and the “Merocyanine Half-life” value [2, 8] was 610 s. For the same molecule, the “Merocyanine Half-life” value [2, 9] was 38 s.
In the case of CCCCCCCCCCCCCCCCCC[N+]1=C(/C=C/c2cc([N+](=O)[O-])ccc2[O-])C(C)(C)c2ccccc21 [5e], the “Merocyanine Half-life” value [2, 3] is reported as 114 s, the “Merocyanine Half-life” value [2, 4] is reported as 40 s and the “Merocyanine Half-life” value [2, 5] is reported as 1450 s. The “Merocyanine Half-life” value [2, 6] was 20 s, the “Merocyanine Half-life” value [2, 7] was 11000 s and the “Merocyanine Half-life” value [2, 8] was 830 s. For the same molecule, the “Merocyanine Half-life” value [2, 9] was 49 s.
